For assay [1], the target named is T1, CDK4/cyclin D3 (Homo sapiens, UniProt P11802).
T1 construct: purchased Carna Biosciences, Inc. QS S Assist CDK4/Cyclin D3_FP Kit
The assay is described as follows: Human CDK4/cyclin D3 inhibitory activity (QS S Assist CDK4/Cyclin D3_FP Kit, IMAP fluorescence polarization). Type of assay: biochemical. The procedure, abridged:
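IMAP fluorescence polarization kit: CDK4/cyclin D3 at 12.5-25 ng/well with kit ATP/substrate/metal mix in 20 mM HEPES pH 7.4, 0.01% Tween20, 2 mM DTT, 45 min at room temperature. FP read at 485/535 nm after 30 min binding; IC50 from dose-response fit of percent inhibition versus enzyme and no-enzyme controls.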
(In fluorescence polarisation assays a small probe gives low polarisation when free and higher when bound to something large.)

The target of assay [2] is T2, CDK2/cyclin A2 (Homo sapiens, UniProt P24941).
T2 construct: purchased Carna Biosciences, Inc. QS S Assist CDK2/Cyclin A2_FP Kit
The assay is described as follows: Human CDK2/cyclin A2 inhibitory activity (QS S Assist CDK2/Cyclin A2_FP Kit, IMAP fluorescence polarization). Type of assay: biochemical. The method in brief:
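Kinase activity read as fluorescence polarization (485/535 nm) after phosphorylated fluorescent substrate binds IMAP reagent (30 min, RT, dark). Enzyme (2.5 ng/well) reacted 60 min at RT with ATP/substrate/metal in HEPES pH 7.4 buffer with Tween 20 and DTT; no-enzyme wells define 0% activity; IC50 by curve fit.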

The mark [3] stands for this setting: 50% inhibitory concentration against CDK4/cyclin D3, given as class symbol.
Where [4] appears, read: 50% inhibitory concentration against CDK2/cyclin A2, given as class symbol.
The mark [5] stands for this setting: Human CDK4/cyclin D3 inhibitory activity, read-out: CDK4 Activity symbol.
The mark [6] stands for this setting: Human CDK2/cyclin A2 inhibitory activity, read-out: CDK2 Activity symbol.

The structures appear in SMILES notation. Read-outs that look alike come from different tables or passages of the source.

T1 sequence (P11802 whole entry): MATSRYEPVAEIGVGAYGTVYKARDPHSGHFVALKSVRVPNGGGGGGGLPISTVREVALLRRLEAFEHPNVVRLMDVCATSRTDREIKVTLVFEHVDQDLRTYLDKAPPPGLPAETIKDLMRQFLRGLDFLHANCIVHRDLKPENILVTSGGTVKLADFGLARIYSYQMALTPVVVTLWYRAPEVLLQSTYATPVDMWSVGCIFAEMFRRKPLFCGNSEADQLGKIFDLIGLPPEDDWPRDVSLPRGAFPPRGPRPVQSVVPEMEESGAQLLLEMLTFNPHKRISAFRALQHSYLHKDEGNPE
T1 sequence (P30281 whole entry partner): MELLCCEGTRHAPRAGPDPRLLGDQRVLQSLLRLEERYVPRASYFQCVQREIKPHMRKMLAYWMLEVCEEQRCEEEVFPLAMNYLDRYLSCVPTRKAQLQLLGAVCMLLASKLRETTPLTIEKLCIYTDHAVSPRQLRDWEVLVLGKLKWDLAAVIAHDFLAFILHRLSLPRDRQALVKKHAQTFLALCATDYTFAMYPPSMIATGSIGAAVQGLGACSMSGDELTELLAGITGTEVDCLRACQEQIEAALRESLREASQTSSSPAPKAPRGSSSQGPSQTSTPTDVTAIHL

Turning to `CC(=O)c1cc2cnc(Nc3ccc(N4CCNCC4)nn3)nc2c(NC(C)(C)C)n1` [Compound 909], the figures for the IC50 in assay [1] (setting [3]) and in assay [2] (setting [4]) were below 10 nM and at least 100 nM, respectively.
The like results for `C[C@@H](O)c1cc2cnc(Nc3ccc(N4CCNCC4=O)cn3)nc2c(NC2CC2)n1` [Compound 1044] were, in that order, 10 to 100 nM and at least 100 nM.
On to `CC(C)CNc1nc([C@@H](C)O)cc2cnc(Nc3ccc(CN4CCC[C@H](O)C4)cn3)nc12` [Compound 1189], for which the results for the IC50 in assay [1] (setting [3]) and in assay [2] (setting [4]) were below 10 nM and at least 100 nM, respectively.
On to `CN(c1nc(C(F)F)cc2cnc(Nc3ccc(N4CCNCC4)cn3)nc12)C1CCCC1` [Compound 5], for which the IC50 in assay [1] (setting [5]) is below 10 nM; in assay [2] (setting [6]), at least 100 nM.
For `COCC(C)(C)Nc1nc([C@@H](C)O)cc2cnc(Nc3ccc(C(C)N4CCNCC4)cn3)nc12` (stereo partly shown) [Compound 265] the same measures were below 10 nM and at least 100 nM.
For `O[C@H]1CC[C@H](Nc2nc(C(F)F)cc3cnc(Nc4ccc(CN5CCNCC5)cn4)nc23)CC1` [Compound 386] the same measures were below 10 nM and at least 100 nM.
For the molecule `C[C@@H](O)c1cc2cnc(Nc3ccc4c(n3)CCN(C(=O)CO)C4)nc2c(N[C@H]2CC[C@H](C)CC2)n1` [Compound 652], the results for the IC50 in assay [1] (setting [3]) and in assay [2] (setting [4]) were below 10 nM and at least 100 nM, respectively.
The like results for `CCCNc1nc([C@@H](C)O)cc2cnc(Nc3ccc(CN4CCN(CCO)[C@@H](C)C4)cn3)nc12` [Compound 1208] were, in that order, below 10 nM and at least 100 nM.
`C[C@@H](O)c1cc2cnc(Nc3ccc(N4CCN(C=O)CC4=O)cn3)nc2c(N[C@H]2CCCOC2)n1` [Compound 352]: the IC50 in assay [1] (setting [5]) was below 10 nM; in assay [2] (setting [6]) it was at least 100 nM.
For `CC(C)Nc1nc(C(F)F)cc2cnc(Nc3ccc(CCCO)cn3)nc12` [Compound 164] the same measures were below 10 nM and 10 to 100 nM.
The like results for `CC(C)Nc1nc(C(F)F)cc2cnc(Nc3ccc(CN(C[C@H]4CCCO4)S(C)(=O)=O)cn3)nc12` [Compound 148] were, in that order, 10 to 100 nM and at least 100 nM.
For `CNCC(C)(C)c1ccc(Nc2ncc3cc([C@@H](C)O)nc(NC(C)(C)COC)c3n2)nc1` [Compound 264] the same measures were below 10 nM and at least 100 nM.
Regarding `COC1CCC(Nc2nc([C@@H](C)O)cc3cnc(Nc4ccc(N5CCC(O)CC5)nn4)nc23)CC1` (stereo partly shown) [Compound 590], the IC50 in assay [1] (setting [5]) is below 10 nM; in assay [2] (setting [6]) it was at least 100 nM.
Consider `CCNc1nc([C@@H](C)O)cc2cnc(Nc3ccc(CN4CCCN(CCO)CC4)cn3)nc12` [Compound 1216], for which the IC50 in assay [1] (setting [3]) was below 10 nM; in assay [2] (setting [4]), at least 100 nM.
Take `CO[C@H](C)c1cc2cnc(Nc3ccc(N4CCNC[C@@H]4C)nn3)nc2c(NC(C)C)n1` [Compound 371]: the IC50 was below 10 nM in assay [1] (setting [5]) and at least 100 nM in assay [2] (setting [6]).
Consider `CC(C)Nc1nc([C@@H](C)O)cc2cnc(Nc3ccc(N4CCC(N(C)C)C4)nn3)nc12` (stereo partly shown) [Compound 1219], for which the IC50 in assay [1] (setting [3]) was below 10 nM; in assay [2] (setting [4]) it was at least 100 nM.
On to `CC(C)Nc1nc(C(F)F)cc2cnc(Nc3ccc(CN4CCCC(CO)C4)cn3)nc12` (stereo not shown) [Compound 127], for which the IC50 was below 10 nM in assay [1] (setting [5]) and 10 to 100 nM in assay [2] (setting [6]).
Take `CC(C)Nc1nc(C(C)O)cc2cnc(Nc3ccc(C4CNCCO4)cn3)nc12` (single isomer, unassigned) [Compound 735]: the results for the IC50 in assay [1] (setting [3]) and in assay [2] (setting [4]) were below 10 nM and at least 100 nM, respectively.
For `CC(C)Nc1nc([C@@H](C)O)cc2cnc(Nc3ccc4c(n3)CCNC4)nc12` [Compound 693] the same measures were below 10 nM and at least 100 nM.
For `CC(C)Nc1nc([C@@H](C)O)cc2cnc(Nc3cnc(CN4CCN(CCO)CC4)cn3)nc12` [Compound 1050] the same measures were below 10 nM and at least 100 nM.
Consider `CC(C)Nc1nc([C@@H](C)O)cc2cnc(Nc3ccc(N4CCC(N)CC4=O)cn3)nc12` (stereo partly shown) [Compound 605], for which the IC50 in assay [1] (setting [5]) is below 10 nM; in assay [2] (setting [6]) it was 10 to 100 nM.
For `CC(C)Nc1nc(C(F)F)cc2cnc(Nc3ccc(N4CCC(C(=O)O)CC4)cn3)nc12` [Compound 90] the same measures were 10 to 100 nM and 10 to 100 nM.
Consider `CC(C)Nc1nc([C@@H](C)O)cc2cnc(Nc3ccc(C4CCN(C(C)(C)C(=O)O)CC4)cn3)nc12` [Compound 796], for which the IC50 was below 10 nM in assay [1] (setting [3]) and at least 100 nM in assay [2] (setting [4]).
Regarding `CC(C)Nc1nc(C(F)F)cc2cnc(Nc3ccc(N4CCC(O)C4)cn3)nc12` (stereo not shown) [Compound 53], the IC50 in assay [1] (setting [5]) is below 10 nM; in assay [2] (setting [6]) it was 10 to 100 nM.
For `CNC(=O)C1CCN(Cc2ccc(Nc3ncc4cc([C@@H](C)O)nc(NC(C)(C)COC)c4n3)nc2)CC1` [Compound 297] the same measures were below 10 nM and at least 100 nM.
Regarding `CC(=O)c1cc2cnc(Nc3ccc(CN4CCNCC4)cn3)nc2c(NC(C)C)n1` [Compound 329], the results for the IC50 in assay [1] (setting [5]) and in assay [2] (setting [6]) were below 10 nM and at least 100 nM, respectively.
As to `CCCCNc1nc([C@@H](C)O)cc2cnc(Nc3ccc(CN4CCN(CCO)CC4)cn3)nc12` [Compound 845], the IC50 in assay [1] (setting [3]) was below 10 nM; in assay [2] (setting [4]) it was at least 100 nM.
With `CC(C)Nc1nc([C@@H](C)O)cc2cnc(Nc3ccc(N4CCN=CC4=O)cn3)nc12` [Compound 731], the IC50 is below 10 nM in assay [1] (setting [3]) and at least 100 nM in assay [2] (setting [4]).
The like results for `CC(O)c1cc2cnc(Nc3ccc(OC4CCNCC4F)cn3)nc2c(NC2CCC(C)(C)OC2)n1` (stereo not shown) [Compound 647] were, in that order, below 10 nM and at least 100 nM.
The like results for `C[C@@H](O)c1cc2cnc(Nc3ccc(CN4CCN(CCO)CC4)cn3)nc2c(NC2CC(F)(F)C2)n1` [Compound 1204] were, in that order, below 10 nM and at least 100 nM.
Consider `CC(C)Nc1nc([C@H](C)O)cc2cnc(Nc3ccc(N4CCNCC4)cn3)nc12` [Compound 17], for which the IC50 in assay [1] (setting [5]) was below 10 nM; in assay [2] (setting [6]) it was at least 100 nM.
Regarding `CC(=O)c1cc2cnc(Nc3ccc(OCCN(C)C)cn3)nc2c(NC(C)C)n1` [Compound 734], the IC50 in assay [1] (setting [3]) is below 10 nM; in assay [2] (setting [4]), at least 100 nM.
The like results for `CCNc1nc(C2(C)COC2)cc2cnc(Nc3ccc(CN4CCNCC4)cn3)nc12` [Compound 1107] were, in that order, below 10 nM and at least 100 nM.
The like results for `CO[C@H](C)c1cc2cnc(Nc3ccc(OC4CCNCC4)cn3)nc2c(NC2CCOCC2)n1` [Compound 873] were, in that order, below 10 nM and at least 100 nM.
As for `CC(C)Nc1nc(C(F)F)cc2cnc(Nc3ccc(CN4CCC(C(N)=O)CC4)cn3)nc12` [Compound 125], the IC50 is below 10 nM in assay [1] (setting [5]) and 10 to 100 nM in assay [2] (setting [6]).
For `C[C@@H](O)c1nc(N[C@H]2CCCOC2)c2nc(Nc3ccc(CN4CCNCC4)cn3)ncc2c1Cl` [Compound 369] the same measures were below 10 nM and at least 100 nM.
The like results for `CC(C)(C)Nc1nc(C(F)F)cc2cnc(Nc3ccc(N4CCNCC4)cn3)nc12` [Compound 13] were, in that order, below 10 nM and 10 to 100 nM.
In the case of `CC(C)Nc1nc([C@@H](C)O)cc2cnc(Nc3ccc(C4CNCCO4)nn3)nc12` (stereo partly shown) [Compound 706], the IC50 in assay [1] (setting [3]) is below 10 nM; in assay [2] (setting [4]), at least 100 nM.
As to `CC(C)Nc1nc([C@@H](C)O)cc2cnc(Nc3ccc(CN4CCN(CC(C)(C)O)CC4)cn3)nc12` [Compound 626], the IC50 in assay [1] (setting [5]) was below 10 nM; in assay [2] (setting [6]), at least 100 nM.
As for `CO[C@H](C)c1cc2cnc(Nc3ccc(CN4CCNCC4)cn3)nc2c(N[C@H]2CC[C@H](O)CC2)n1` [Compound 345], the IC50 in assay [1] (setting [5]) is below 10 nM; in assay [2] (setting [6]), at least 100 nM.
`CC(C)Nc1nc([C@@H](C)O)cc2cnc(Nc3ccc4c(n3)CCN(C(=O)[C@@H](N)C(C)C)C4)nc12` [Compound 931]: the IC50 was below 10 nM in assay [1] (setting [3]) and at least 100 nM in assay [2] (setting [4]).
As for `CC(C)Nc1nc(C(F)F)cc2cnc(Nc3ccc(-c4cnn(C)c4)cn3)nc12` [Compound 188], the IC50 in assay [1] (setting [5]) was 10 to 100 nM; in assay [2] (setting [6]), at least 100 nM.
As to `CC(O)c1cc2cnc(Nc3ccc(N4CCNCC4)cn3)nc2c(NC(C)C(F)(F)F)n1` (stereo not shown) [Compound 54], the IC50 was below 10 nM in assay [1] (setting [5]) and at least 100 nM in assay [2] (setting [6]).
For `CC(C)Nc1nc(C(F)F)cc2cnc(Nc3ccc(CCNS(C)(=O)=O)cn3)nc12` [Compound 151] the same measures were below 10 nM and 10 to 100 nM.
For `CC(O)c1cc2cnc(Nc3ccc(N4CCNCC4)cn3)nc2c(NC2CC2)n1` (stereo not shown) [Compound 21] the same measures were below 10 nM and at least 100 nM.
On to `CO[C@H](C)c1cc2cnc(Nc3ccc(CN4CCN(C(=O)CO)CC4)cn3)nc2c(NC(C)C)n1` [Compound 988], for which the IC50 is below 10 nM in assay [1] (setting [3]) and at least 100 nM in assay [2] (setting [4]).
For `C[C@@H](O)c1cc2cnc(Nc3ccc4c(n3)CCN(C(=O)CO)C4)nc2c(NC2CCC(C)(C)CC2)n1` [Compound 654] the same measures were below 10 nM and at least 100 nM.
The like results for `C[C@@H](O)c1cc2cnc(Nc3ccc(CN4CCN(CCO)CC4)cn3)nc2c(NC2CC2)n1` [Compound 997] were, in that order, below 10 nM and at least 100 nM.
For `CC(C)Nc1nc([C@@H](C)O)cc2cnc(Nc3ccc(N4CCC(C(=O)O)CC4)nn3)nc12` [Compound 792], the IC50 in assay [1] (setting [3]) was 10 to 100 nM; in assay [2] (setting [4]) it was at least 100 nM.
Consider `C[C@@H](O)c1cc2cnc(Nc3ccc(N4CCNCC4)nn3)nc2c(NC2(C(=O)O)CCCC2)n1` [Compound 316], for which the IC50 in assay [1] (setting [5]) and in assay [2] (setting [6]) was at least 100 nM in each case.

The record behind these values is US10124004B2, “Pyrido[3,4-d]pyrimidine derivative and pharmaceutically acceptable salt thereof” (Teijin Pharma Limited, priority 2015, dated 2018).
